The subject of this test is adult rat retinal ganglion cells (RGC). Kind of test: Cultured adult rat RGC survival under cytotoxic insults (Example 4). In kind it is cell-based. Conditions: 30 min pre-treatment, then 100 μM glutamate for 3 days. The method, then:
Adult Sprague-Dawley rats were euthanized by CO2 asphyxiation. Their eyes were enucleated and the retinas isolated. Retinal cells were treated with of papain solution for 25 min at 37° C., then washed 3 times with 5 mL RGC culture medium (Neurobasal medium with various nutrient supplements+1% fetal calf serum). Retinal cells were dispersed by trituration. Cell suspension was placed onto poly-D-lysine- and laminin-coated 8-well chambered culture slides. The cells were then cultured in 95% air/5% CO2 at 37° C.
For glutamate-induced toxicity studies, cells were pre-treated with vehicle or the indicated compounds for 30 minutes, followed by 100 μM glutamate for 3 days.
For trophic factor withdrawal studies, three trophic factors, basic fibroblast growth factor, brain-derived neurotrophic factor, and ciliary neurotrophic factor, were removed from the culture medium. Cells were cultured in this medium with the indicated compounds for 3 days.
At the end of the incubation period, the cells were fixed and labeled for Thy-1, a RGC marker, by immunocytochemistry. Cell survival was quantified by manually counting Thy-1-positive healthy cells in each well.

Take `C[C@]12N[C@H](Cc3ccccc31)c1ccccc12` [MK801]: the “RGC survival, glutamate-induced toxicity (Thy-1-positive healthy cells)” value is “prevented”.

Values taken from patent US7803824B2, “Use of inhibitors of Jun N-terminal kinases to treat glaucoma” (Alcon, Inc., priority 2004, dated 2010).
